Key:
[1] = target: Sodium-dependent serotonin transporter (Rattus norvegicus, UniProt P31652); experiment: Displacement of [3H]paroxetine from serotonin transporter of rat cerebral cortex; type: tissue-based
[2] = target: Sodium-dependent dopamine transporter (Rattus norvegicus, UniProt P23977); experiment: Displacement of [3H]GBR-12935 from dopamine transporter of rat caudate-putamen; type: tissue-based
[3] = target: Monoamine transporters; serotonin & dopamine (Rattus norvegicus) (UniProt P31652+P23977); experiment: Selectivity for inhibition of serotonin and dopamine transporters; type: protein assay
[4] = target: Monoamine transporters; Norepinephrine & serotonin (Rattus norvegicus) (UniProt P31652+Q9WTR4); experiment: Selectivity for inhibition of serotonin and norepinephrine transporters; type: protein assay
[5] = target: Norepinephrine transporter (Rattus norvegicus, UniProt Q9WTR4); experiment: Displacement of [3H]nisoxetine from norepinephrine transporter of rat cerebral cortex; type: tissue-based
Sequence of Norepinephrine transporter (Q9WTR4 whole entry): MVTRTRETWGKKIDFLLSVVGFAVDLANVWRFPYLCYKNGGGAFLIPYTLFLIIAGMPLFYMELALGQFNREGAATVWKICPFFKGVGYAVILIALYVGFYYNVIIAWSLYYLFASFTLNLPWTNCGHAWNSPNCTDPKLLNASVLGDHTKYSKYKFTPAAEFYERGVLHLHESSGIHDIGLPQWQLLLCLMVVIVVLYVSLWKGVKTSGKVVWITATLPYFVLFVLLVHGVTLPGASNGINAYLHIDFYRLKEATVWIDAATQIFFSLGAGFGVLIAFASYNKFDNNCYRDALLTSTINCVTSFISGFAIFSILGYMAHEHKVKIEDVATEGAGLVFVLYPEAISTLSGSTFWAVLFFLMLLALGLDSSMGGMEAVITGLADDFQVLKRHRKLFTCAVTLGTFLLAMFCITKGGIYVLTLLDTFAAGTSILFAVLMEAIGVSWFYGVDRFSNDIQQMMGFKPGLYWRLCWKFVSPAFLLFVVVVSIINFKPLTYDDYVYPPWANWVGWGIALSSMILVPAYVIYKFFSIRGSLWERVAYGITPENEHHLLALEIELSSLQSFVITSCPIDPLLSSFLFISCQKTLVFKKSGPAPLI

Sequence of Sodium-dependent dopamine transporter (P23977 whole entry): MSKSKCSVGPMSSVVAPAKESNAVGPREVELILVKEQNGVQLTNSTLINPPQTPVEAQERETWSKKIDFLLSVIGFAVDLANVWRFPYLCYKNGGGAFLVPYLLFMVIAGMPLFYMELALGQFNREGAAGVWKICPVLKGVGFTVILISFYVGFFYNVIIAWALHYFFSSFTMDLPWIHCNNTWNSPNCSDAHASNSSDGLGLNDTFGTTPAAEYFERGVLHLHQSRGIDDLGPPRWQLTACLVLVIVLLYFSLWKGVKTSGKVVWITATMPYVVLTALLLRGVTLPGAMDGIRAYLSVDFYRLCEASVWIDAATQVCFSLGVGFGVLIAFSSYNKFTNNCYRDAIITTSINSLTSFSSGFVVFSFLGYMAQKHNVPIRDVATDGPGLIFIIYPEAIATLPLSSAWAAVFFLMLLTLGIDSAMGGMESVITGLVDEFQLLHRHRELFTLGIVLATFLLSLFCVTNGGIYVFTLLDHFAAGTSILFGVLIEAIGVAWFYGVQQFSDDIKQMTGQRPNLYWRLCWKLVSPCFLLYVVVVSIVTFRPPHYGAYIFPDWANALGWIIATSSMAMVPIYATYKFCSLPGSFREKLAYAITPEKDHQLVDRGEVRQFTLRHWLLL
Sequence of Monoamine transporters; serotonin & dopamine (Rattus norvegicus) (P23977 whole entry, looked up): as the sequence (P23977 whole entry) above
Sequence of Monoamine transporters; serotonin & dopamine (Rattus norvegicus) (P31652 whole entry, looked up): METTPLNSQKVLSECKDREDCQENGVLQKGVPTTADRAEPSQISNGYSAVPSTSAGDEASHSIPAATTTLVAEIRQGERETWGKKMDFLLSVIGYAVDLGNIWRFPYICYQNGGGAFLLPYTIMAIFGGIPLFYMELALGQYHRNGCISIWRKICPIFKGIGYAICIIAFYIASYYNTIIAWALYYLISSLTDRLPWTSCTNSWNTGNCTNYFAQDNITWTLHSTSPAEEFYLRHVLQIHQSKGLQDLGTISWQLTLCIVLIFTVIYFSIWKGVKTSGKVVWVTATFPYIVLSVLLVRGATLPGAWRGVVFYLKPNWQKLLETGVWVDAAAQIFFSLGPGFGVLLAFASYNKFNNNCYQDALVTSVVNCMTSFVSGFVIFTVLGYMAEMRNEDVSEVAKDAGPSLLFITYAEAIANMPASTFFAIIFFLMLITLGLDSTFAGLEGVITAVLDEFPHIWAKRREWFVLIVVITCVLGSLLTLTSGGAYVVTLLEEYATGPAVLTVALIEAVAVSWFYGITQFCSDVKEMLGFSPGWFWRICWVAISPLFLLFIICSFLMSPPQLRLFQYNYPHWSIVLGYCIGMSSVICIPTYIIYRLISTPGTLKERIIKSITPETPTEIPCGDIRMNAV
Sequence of Sodium-dependent serotonin transporter (P31652 whole entry): as the sequence (P31652 whole entry, looked up) above

SMILES	Ki [1] [nM]	Ki [2] [nM]	Ratio [3]	Ratio [4]	Ki [5] [nM]
COC(=O)C1C(c2ccc(-c3ccc(N)s3)cc2)CC2CCC1N2C (configuration not stated)	64.7	> 10000	> 155	> 464	> 30000
COC(=O)C1C(c2ccc(-c3ccc(Br)s3)cc2)CC2CCC1N2C (configuration not stated)	0.38	6.43	17	853	324
COC(=O)C1C(c2ccc(-c3cccs3)cc2)CC2CCC1N2C (configuration not stated)	0.15	52	346	1050	158
COC(=O)C1C2CCC(CC1c1ccc(-c3ccsc3)cc1)N2 (configuration not stated)	0.23	6.4	28	170	39
COC(=O)C1C(c2ccc(-c3ccc(Cl)s3)cc2)CC2CCC1N2C (configuration not stated)	0.64	4.42	6.9	486	311
COC(=O)C1C(c2ccc(I)cc2)CC2CCC1N2C (configuration not stated)	–	–	2.1	6.1	–
COC(=O)C1C2CCC(CC1c1ccc(-c3cccs3)cc1)N2 (configuration not stated)	0.11	12.2	111	685	75.3
COC(=O)C1C(c2ccc(-c3cscc3Br)cc2)CC2CCC1N2C (configuration not stated)	4.02	183	46	> 2490	> 10000
COC(=O)C1C(c2ccc(-c3cc([N+](=O)[O-])c([N+](=O)[O-])s3)cc2)CC2CCC1N2C (configuration not stated)	5000	> 30000	> 6	> 2	> 10000
COC(=O)C1C(c2ccc(-c3ccsc3)cc2)CC2CCC1N2C (configuration not stated)	0.017	12.1	710	11100	189
COC(=O)C1C(c2ccc(-c3ccc(I)s3)cc2)CC2CCC1N2C (configuration not stated)	4.56	22.1	4.9	249	1140
